Reference: patent US20240269204A1, “COMPOSITION FOR ALLEVIATING SKIN DAMAGE CAUSED BY HYPOXIA CONTAINING SACCHAROMYCES CEREVISIAE STRAIN” (AMOREPACIFIC CORPORATION, priority 2023, published 2024)

Legend:
[1] = tested on: MMP1; experiment: MMP1 gene expression by qPCR in CoCl2-induced hypoxic keratinocytes; assay type: cell-based; settings: keratinocytes (HEKn) treated with 200 μM CoCl2, 2.5 µM EGCG, cultured for 18 hours
Description: (§1) First, keratinocytes (HEKn) (onza, Switzerland) were treated with 200 μM CoCl2 to induce a hypoxic environment. After that, the expression level of hypoxia-inducible factor 1-alpha (HIF1A) that was known to be expressed under hypoxia was compared with that before the treatment with CoCl2 (CTL in FIG. 1) to confirm that the expression level of HIF1A increased compared with that before the treatment with CoCl2 (FIG. 1), and thus skin (keratinocytes) damaged by hypoxia (hereinafter referred to as hypoxic keratinocytes) was prepared. Thereafter, in order to verify the effect of the strain isolated in Example 1 on the alleviation of skin damage due to hypoxia, the hypoxic keratinocytes were treated with the extract prepared in Example 2 at various concentrations and then cultured for 18 hours. […] Specifically, 10 μL of universal master mix (Taqman 2X Universal PCR mix, Applied Biosystems, Cat. No. 4304437) and 1 μL of TaqMan probe were added, 5 μL of CDNA was added to obtain a total volume of 20 μL, and PCR was performed using the Applied biosystem 7500 fast real time PCR system and the provided standard protocol. The expression of MMP1, an aging-related gene, and COX2, an inflammation-related gene, was examined through qPCR, and the results are illustrated in FIGS. 2 and 3. At this time, EGCG was used as Comparative Example. […]

[2] = tested on: COX2; experiment: COX2 gene expression by qPCR in CoCl2-induced hypoxic keratinocytes; assay type: cell-based; settings: keratinocytes (HEKn) treated with 200 μM CoCl2, EGCG at 2.5 ppm, cultured for 18 hours
Description: as §1

SMILES: O=C(O[C@@H]1Cc2c(O)cc(O)cc2O[C@@H]1c1cc(O)c(O)c(O)c1)c1cc(O)c(O)c(O)c1 [EGCG]
- inhibition of MMP1 overexpressed by hypoxia (expression level of MMP1, FIG. 2) [1]: cannot inhibit MMP1 overexpressed by hypoxia
- inhibition of COX2 overexpressed by hypoxia (expression level of COX2, FIG. 3) [2]: cannot inhibit expression of COX2 overexpressed by hypoxia
